In patent publication US9241951B2, “Of gastrointestinal health, immunity and performance by dietary intervention” (BIOATLANTIS LTD, priority 2009, dated 2016):

Legend:
Assay type in all cases: in vivo, pig
[1] = VFA analysis and digesta pH in ileum, caecum and colon, Example 5; conditions: for total VFAs: increasing LAM
Description: 21 pigs with an initial weight of 17.9±2.2 Kg were assigned to one of the 3 dietary treatments: (T1) control; (T2) basal diet+300 ppm LAM; (T3) basal diet+600 ppm LAM. Experimental feeding continued for 21 days ad libitum. Diets were formulated to have similar digestible energy (DE) (14.4 MJ/Kg) and ileal digestible lysine (12.5 g/Kg). Post-slaughter, digestive tract was removed by dissection and digesta was removed from the ileum. Each digesta sample was serially diluted in maximum recovery diluent (MRD, Oxoid, Basingstoke, UK), and spread plated onto selective agars. Bifidobacteria, Lactobacilli and Enterobacteria species were isolated according to the methods described by Pierce et al. (2005). Digesta samples used to measure VFA concentration were collected from the caecum and the same location in the ileum and colon. VFA analysis was performed using gas liquid chromatography (GLC) according to the method described by Pierce et al., (2005).

IFN-γ = assay: Cytokine gene expression after ex-vivo LPS tissue challenge of ileum and colon, Example 5; conditions: ileum, ex-vivo LPS challenge (10 μg/ml, 90 minutes)
Description: (§1) 21 pigs with an initial weight of 17.9±2.2 Kg were assigned to one of the 3 dietary treatments: (T1) control; (T2) basal diet+300 ppm LAM; (T3) basal diet+600 ppm LAM. Experimental feeding continued for 21 days ad libitum. Diets were formulated to have similar digestible energy (DE) (14.4 MJ/Kg) and ileal digestible lysine (12.5 g/Kg).
(§2) Ileal and colonic tissues were sampled from the same location as described for digesta samples. Excised tissues were emptied by dissecting them along the mesentery and rinsing them using sterile phosphate buffered saline (PBS) (Oxoid). Tissue sections 1 cm^3, which had been stripped of the overlying smooth muscle were cut from each tissue. Two sections from each tissue were placed in 1 ml of Dulbecco's Modified Eagle's Medium (DMEM) (Gibco), one in the presence of bacterial lipopolysaccharide (LPS) (Sigma Aldrich) at a concentration of 10 μg/ml. The other tissue sample was used as a control and incubated in sterile DMEM in the absence of LPS. Both challenged and unchallenged tissues were incubated at 37° C. for 90 minutes before being removed, blotted dry and weighed. Approximately 1-2 g of porcine ileum and colon tissues were cut into small pieces and collected in 15 ml of RNAlater® (Applied Biosystems, Foster City, Calif.). RNAlater® was removed before storing the samples at −80° C. until used for RNA extraction.
(§3) Tissue samples for RNA extraction were removed from −86° C. and homogenised. 500 μl of lysis solution/2-ME was added to each sample and these were mechanically disrupted using one 5 mm stainless steel bead per sample. These were then placed in a Tissue Lyser (Qiagen) and lysates were homogenised for 3 mins and transferred to a GenElute Filtration Column (Sigma Aldrich) and RNA was extracted. 1 µg of total RNA was used for cDNA synthesis using oligo(dT)20 primer in a final reaction volume of 20 μl with Superscript™ III First-Strand synthesis system for reverse transcriptase-polymerase chain reaction (RT-PCR) (Invitrogen Life Technologies, Carlsbad, Calif.). At the last step of cDNA synthesis, treatment with E. coli RNase H (Invitrogen Corp.) was performed to digest the remaining RNA/mRNA template, resulting in the production of the single-stranded cDNA template for subsequent qRT-PCR reactions.
(§4) All porcine primers for the cytokine genes interferon gamma (IFN-γ), interleukin-1α (IL-1α), IL-6, IL-8, IL-10, IL-17, tumour necrosis factor (TNF-α), the mucin genes (MUCs 1, 2, 4, 5AC, 12, 13 and 20) and three reference genes, β-actin (ACTB), Glyceraldehyde-3-phosphate dehydrogenase (GAPDH) and Peptidylprolyl isomerase A (PPIA), were designed using Primer Express™ (PE Applied Biosystems, Foster City, Calif.) and synthesised by MWG Biotech (Milton Keynes, UK). These reference genes were previously validated for use in porcine tissue and qPCR was then carried out on the cDNA using the ABI PRISM 7900HT Fast sequence detection system for 96-well plates (Applied Biosystems, Foster City, Calif.). All samples were prepared in duplicate using SYBR Green Fast PCR Master Mix (Applied Biosystems, Foster City, Calif.), cDNA as template and specific primers for the genes selected. For each reaction 5 μl cDNA, 1.2 μl (forward and reverse primer mix, 5 μM), 10 μl Fast SYBR Green PCR Master Mix (PE Applied Biosystems, Foster City, Calif.) was added and made up to a final volume of 20 μl. The two step PCR program was as follows: 95° C. for 10 minutes for 1 cycle followed by 95° C. for 15 seconds and 60° C. for 1 minute for 40 cycles. The raw Ct values for the reference genes were converted to relative quantities using the formula Q=E ^ΔCt where E is the PCR efficiency of the assay and ^ΔCt is the value calculated for the difference between the lowest Ct value for each gene minus the Ct value of the sample in question. The relative quantities of the endogenous controls were then analysed for stability in geNorm (Vandesompele et al., 2002). […]

IL-10 = assay: as above; conditions: ileum, ex-vivo LPS challenge (10 μg/ml, 90 minutes)
Description: as §1, §2, §3, §4

IL-17 = assay: as above; conditions: ileum, ex-vivo LPS challenge (10 μg/ml, 90 minutes)
Description: as §1, §2, §3, §4

IL-1α = assay: as above; conditions: ileum, ex-vivo LPS challenge (10 μg/ml, 90 minutes)
Description: as §1, §2, §3, §4

IL-6 = assay: as above
Description: as §1, §2, §3, §4

TNF-α = assay: as above; conditions: ileum, ex-vivo LPS challenge (10 μg/ml, 90 minutes)
Description: as §1, §2, §3, §4

## laminarin
[1]; any intestinal region
  digesta pH: no significant alteration
[1]; caecum
  total VFAs: significant increase
[1]; ileum or colon
  total VFAs: no significant effects
IFN-γ
  IFN-γ gene expression: no effect
IL-10
  IL-10 gene expression: no effect
IL-17
  IL-17 gene expression: no effect
IL-1α
  IL-1α gene expression: no effect
IL-6; colon, LPS-challenged tissue, LAM 300 ppm
  IL-6 expression: increase
IL-6; ileum, ex-vivo LPS challenge (10 μg/ml, 90 minutes)
  IL-6 gene expression: no effect
TNF-α
  TNF-α gene expression: no effect
